{"source": "patent US8093400B2", "about": "“Compounds useful in therapy” (Pfizer Inc., priority 2003, dated 2012)", "data": [{"target": "human V1A receptor (Homo sapiens, UniProt P37288)", "sequence (P37288 whole entry)": "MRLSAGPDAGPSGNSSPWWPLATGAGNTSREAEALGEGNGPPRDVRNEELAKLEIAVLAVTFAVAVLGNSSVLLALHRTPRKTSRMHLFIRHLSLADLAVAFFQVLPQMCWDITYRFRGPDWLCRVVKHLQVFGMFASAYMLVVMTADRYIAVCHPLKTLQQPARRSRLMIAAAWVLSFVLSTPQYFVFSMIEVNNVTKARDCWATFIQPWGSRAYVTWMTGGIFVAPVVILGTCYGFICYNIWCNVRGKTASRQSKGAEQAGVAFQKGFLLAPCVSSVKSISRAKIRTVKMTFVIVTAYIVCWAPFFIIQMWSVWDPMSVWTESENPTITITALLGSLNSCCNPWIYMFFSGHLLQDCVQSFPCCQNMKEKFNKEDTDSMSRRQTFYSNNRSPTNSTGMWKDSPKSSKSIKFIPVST", "assay": "V1A filter binding assay ([3H]-AVP binding to CHO-hV1A membranes)", "conditions": "screen 1.0, [3H]-AVP binding to CHO-hV1A membranes", "method": "1.0 V1A Filter Binding Assay\nReceptor binding assays were performed on cellular membranes prepared from CHO cells stably expressing the human V1A receptor, (CHO-hV1A). The CHO-hV1A cell line was kindly provided under a licensing agreement by Marc Thibonnier, Dept. of Medicine, Case Western Reserve University School of Medicine, Cleveland, Ohio. CHO-hV1A cells were routinely maintained at 37° C. in humidified atmosphere with 5% CO2 in DMEM/Hams F12 nutrient mix supplemented with 10% fetal bovine serum, 2 mM L-glutamine, 15 mM HEPES and 400 μg/ml G418. For bulk production of cell pellets, adherent CHO-hV1A cells were grown to confluency of 90-100% in 850 cm^2 roller bottles containing a medium of DMEM/Hams F12 Nutrient Mix supplemented with 10% fetal bovine serum, 2 mM L-glutamine and 15 mM HEPES. Confluent CHO-hV1A cells were washed with phosphate-buffered saline (PBS), harvested into ice cold PBS and centrifuged at 1,000 rpm. Cell pellets were stored at −80° C. until use. Cell pellets were thawed on ice and homogenised in membrane preparation buffer consisting of 50 mM Tris-HCl, pH 7.4, 5 mM MgCl2 and supplemented with a protease inhibitor cocktail, (Roche). The cell homogenate was centrifuged at 1000 rpm, 10 min, 4° C. and the supernatant was removed and stored on ice. The remaining pellet was homogenised and centrifuged as before. The supernatants were pooled and centrifuged at 25,000×g for 30 min at 4° C. […] Protein concentration was determined using Bradford reagent and BSA as a standard.\nProtein linearity followed by saturation binding studies were performed on each new batch of membrane. […] Saturation binding studies were then performed using various concentrations of [^3H]-arginine vasopressin, [^3H]-AVP (0.05 nM-100 nM) and the Kd and Bmax determined.\nCompounds were tested for their effects on [^3H]-AVP binding to CHO-hV1A membranes, (^3H-AVP; specific activity 65.5 Ci/mmol; NEN Life Sciences). […] The plates were sealed and counted on a TopCount Microplate Scintillation Counter (Packard Instruments). Non-specific binding (NSB) was determined using 1 μM unlabelled d(CH2)5Tyr(Me)AVP ([β-mercapto-β,β-cyclopentamethylenepropionyl,0-Me-Tyr^2,Arg^8]-vasopressin) (βMCPVP), (Sigma). The radioligand binding data was analysed using a four parameter logistic equation with the min forced to 0%. […] Specific binding was calculated by subtracting the mean NSB cpm from the mean Total cpm. For test compounds the amount of ligand bound to the receptor was expressed as % bound=(sample cpm−mean NSB cpm)/specific binding cpm×100. […] The inhibitory dissociation constant (Ki) was calculated using the Cheng-Prusoff equation: Ki=IC50/(1+[L]/Kd) where [L] is the concentration of ligand present in the well and Kd is the dissociation constant of the radioligand obtained from Scatchard plot analysis. […]", "units": {"Ki": "nM"}, "values": [{"smiles": "O=C(c1n[nH]c2ccccc12)N1CCC(c2nnc(Cn3nccn3)n2-c2ccc(Cl)cc2)CC1", "note": "[Example 405, {4-[4-(4-Chloro-phenyl)-5-[1,2,3]triazol-2-ylmethyl-4H-[1,2,4]triazol-3-yl]-piperidin-1-yl}-(1H-indazol-3-yl)-methanone]", "Ki": 1.11}, {"smiles": "O=C(c1ccc(C(F)F)cc1)N1CCC(c2nnc(Cn3nccn3)n2-c2ccc(Cl)cc2)CC1", "note": "[Example 206, {4-[4-(4-Chloro-phenyl)-5-[1,2,3]triazol-2-ylmethyl-4H-[1,2,4]triazol-3-yl]-piperidin-1-yl}-(4-difluoromethyl-phenyl)-methanone]", "Ki": 2.43}, {"smiles": "O=C(c1cc(Cl)ccc1F)N1CCC(c2nnc(Cn3nccn3)n2-c2ccc(Cl)cc2)CC1", "note": "[Example 399, (5-Chloro-2-fluoro-phenyl)-{4-[4-(4-chloro-phenyl)-5-[1,2,3]triazol-2-ylmethyl-4H-[1,2,4]triazol-3-yl]-piperidin-1-yl}-methanone]", "Ki": 1.99}, {"smiles": "O=C(c1cc(F)cc(F)c1)N1CCC(c2nnc(Cn3nccn3)n2-c2ccc(Cl)cc2)CC1", "note": "[Example 165, {4-[4-(4-Chloro-phenyl)-5-[1,2,3]triazol-2-ylmethyl-4H-[1,2,4]triazol-3-yl]-piperidin-1-yl}-(3,5-difluoro-phenyl)-methanone]", "Ki": 2.98}]}]}
